Data on nine compounds can be found in patent EP2020405A1, “Substituted aryl or heteroarylpiperidine derivatives as melanocortin-4 receptor modulators” (Santhera Pharmaceuticals (Schweiz) AG, priority 2007, dated 2009).

For experiment [1], the target named is T1, hMC-4R (Homo sapiens, UniProt P32245).
T1 construct: expressed in transfected cells; host or cells: HEK293
Briefly: Membrane binding assay (fluorescence polarization, competition with fluorescence labeled NDP-alpha-MSH). As to conditions: HEK293 cell membrane preparations expressing human melanocortin receptors; 5 h at room temperature.

Experiment [2] has as its target T1, hMC-4R. Kind of experiment: Functional assay (membrane based cAMP fluorescence polarization, agonistic activity). Format: biochemical. The arrangement: concentration or dose not given beside the values. As to conditions: cAMP produced compared to stimulation with NDP-alpha-MSH. As for the experimental part: Agonistic activity of human melanocortin receptors is determined in a homogeneous membrane based assay.
Membrane preparations from HEK293 cells expressing the human melanocortin receptors are added. After a short preincubation period, an appropriate amount of ATP, GTP and the cAMP antibody is added and the plate is further incubated before the fluorescence labeled cAMP conjugate is dispensed. The plate is incubated for 2 h at 4°C before it is read on a fluorescence polarization microplate reader. The amount of cAMP produced as a response to a test compound is compared to the production of cAMP resulting from stimulation with NDP-alpha-MSH.

T1 sequence (P32245 whole entry): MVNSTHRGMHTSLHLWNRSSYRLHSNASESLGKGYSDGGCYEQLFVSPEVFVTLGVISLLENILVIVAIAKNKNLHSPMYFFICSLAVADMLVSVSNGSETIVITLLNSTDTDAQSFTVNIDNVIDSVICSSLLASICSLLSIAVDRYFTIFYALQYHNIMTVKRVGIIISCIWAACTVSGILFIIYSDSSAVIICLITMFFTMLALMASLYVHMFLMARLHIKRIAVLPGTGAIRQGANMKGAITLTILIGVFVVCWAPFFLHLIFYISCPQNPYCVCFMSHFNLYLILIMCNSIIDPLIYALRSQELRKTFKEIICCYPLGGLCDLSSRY

For the compound `CCC(COc1cc(Cl)ccc1C1CCN(C(=O)[C@@H](Cc2ccc(Cl)cc2Cl)N2CCCC2)CC1)N1CCCC1` (stereo partly drawn) [Example 3], the IC50 in experiment [1] amounted to 2.1 nM. Also, in experiment [2], the “% activation functional assay” value was 0%.

As to `CCC(CN1CCCC1)Oc1cc(Cl)ccc1C1CCN(C(=O)[C@@H](Cc2ccc(Cl)cc2Cl)N2CCCC2)CC1` (stereo partly drawn) [Example 4], the IC50 in experiment [1] worked out at 2.4 nM. The “% activation functional assay” value in experiment [2] came to 0%.

The compound `O=C(C(Cc1ccc(Cl)cc1Cl)N1CCCCC1)N1CCC(c2ccc(Cl)cc2OCCN2CCCC2)CC1` (stereo not drawn) [Example 10] registered an IC50 in experiment [1] of 62 nM. Moreover, the “% activation functional assay” value in experiment [2] worked out at 14%.

The compound `O=C(C(Cc1ccc(Cl)cc1Cl)N1CCCCC1)N1CCC(c2cc(F)ccc2CCN2CCCC2)CC1` (stereo not drawn) [Example 15] showed a concentration for half-maximal inhibition (IC50) in experiment [1] of 180 nM. Moreover, the “% activation functional assay” value in experiment [2] is 0%.

As for `CCC(Cc1cc(Cl)ccc1C1CCN(C(=O)C(Cc2ccc(Cl)cc2Cl)n2cncn2)CC1)CN1CCCC1` (stereo not drawn) [Example 22], in experiment [1], the IC50 worked out at 17 nM. In addition, in experiment [2], the “% activation functional assay” value turned out to be 0%.

`O=C(C(Cc1ccc(Cl)cc1Cl)n1cncn1)N1CCC(c2ccc(Cl)cc2OCCN2CCCC2)CC1` (stereo not drawn) [Example 23]: in experiment [1], the IC50 was determined as 7.7 nM. Also, the “% activation functional assay” value in experiment [2] was found to be 0%.

In turn, `O=C(C(Cc1ccc(Cl)cc1Cl)N1CCOCC1)N1CCC(c2ccc(Cl)cc2OCCN2CCCC2)CC1` (stereo not drawn) [Example 25] came in with an IC50 in experiment [1] of 100 nM. Moreover, the “% activation functional assay” value in experiment [2] is recorded as 0%.

Regarding `O=C(C(Cc1ccc(Cl)cc1Cl)Nc1cccnc1)N1CCC(c2ccc(Cl)cc2OCCN2CCCC2)CC1` (stereo not drawn) [Example 27], the IC50 in experiment [1] was 5.9 nM. The “% activation functional assay” value in experiment [2] came out at 0%.

As for `Cc1ccn(C(Cc2ccc(Cl)cc2Cl)C(=O)N2CCC(c3ccc(Cl)cc3OCCN3CCCC3)CC2)n1` (stereo not drawn) [Example 34], the IC50 in experiment [1] amounted to 220 nM. Moreover, in experiment [2], the “% activation functional assay” value amounted to 0%.
